Values of other authors in US8877779B2 (priority 2007, dated 2014).

Settings: Proc. Natl. Acad. Sci. U.S.A. 97: 4938-4943, 2000

O=C1NCN(c2ccccc2)C12CCN([C@@H]1CC[C@H]3CCCc4cccc1c43)CC2 [Ro64-6198]
bioavailability (BA): 4%
